Assay results: article PMC5218480 (PLoS ONE, 2017)

Tested on: MV-4-11 cells
Experiment: Gene expression microarray analysis (Affymetrix PrimeView) and GSEA
Type: cell-based, human
Design: RFU PODN (11730768_x_at) / Fold change /veh PODN (11730768_x_at) / RFU LINC00158 (11744669_a_at) / Fold change /veh LINC00158 (11744669_a_at) / RFU DUSP10 (11751237_a_at) / Fold change /veh DUSP10 (11751237_a_at) / RFU ID3 (11757404_x_at) / Fold change /veh ID3 (11757404_x_at) / RFU PLEKHG5 (11737974_s_at) / Fold change /veh PLEKHG5 (11737974_s_at) / RFU LRRC4B (11730491_at) / Fold change /veh LRRC4B (11730491_at) / RFU GIMAP4 (11747438_a_at) / Fold change /veh GIMAP4 (11747438_a_at) / RFU KRT8 (11758183_x_at) / Fold change /veh KRT8 (11758183_x_at) / RFU CNN1 (11734310_a_at) / Fold change /veh CNN1 (11734310_a_at) / RFU VPS37D (11726825_at) / Fold change /veh VPS37D (11726825_at) / RFU C10orf10 (11716522_x_at) / Fold change /veh C10orf10 (11716522_x_at) / RFU KIR2DL2 /// KIR2DL4 /// KIR2DL5A /// KIR2DL5B /// KIR2DS1 /// KIR2DS2 /// KIR2DS3 /// KIR2DS4 /// KIR3DL3 /// KIR3DL3 /// KIR3DS1 (11738374_at) / Fold change /veh KIR2DL2 /// KIR2DL4 /// KIR2DL5A /// KIR2DL5B /// KIR2DS1 /// KIR2DS2 /// KIR2DS3 /// KIR2DS4 /// KIR3DL3 /// KIR3DL3 /// KIR3DS1 (11738374_at) / RFU C1QL1 (11718748_at) / Fold change /veh C1QL1 (11718748_at) / RFU TMPRSS4 (11747572_a_at) / Fold change /veh TMPRSS4 (11747572_a_at) / RFU HAMP (11756126_x_at) / Fold change /veh HAMP (11756126_x_at) / RFU RNFT2 (11725882_a_at) / Fold change /veh RNFT2 (11725882_a_at) / RFU NR4A2 (11747474_a_at) / Fold change /veh NR4A2 (11747474_a_at) / RFU ABCC12 (11746883_a_at) / Fold change /veh ABCC12 (11746883_a_at) / RFU TMEM136 (11760407_x_at) / Fold change /veh TMEM136 (11760407_x_at) / RFU CLDN22 /// WWC2 (11732394_at) / Fold change /veh CLDN22 /// WWC2 (11732394_at) / RFU HLA-DPB1 (11760878_x_at) / Fold change /veh HLA-DPB1 (11760878_x_at) / RFU SPINT1 (11716480_a_at) / Fold change /veh SPINT1 (11716480_a_at) / RFU GAP43 (11754022_s_at) / Fold change /veh GAP43 (11754022_s_at) / RFU A4GNT (11735810_at) / Fold change /veh A4GNT (11735810_at) / RFU PRB3 (11715151_x_at) / Fold change /veh PRB3 (11715151_x_at) / RFU TUBB4B (11761932_at) / Fold change /veh TUBB4B (11761932_at) / RFU CAPN14 (11732068_a_at) / Fold change /veh CAPN14 (11732068_a_at) / RFU TMCC2 (11721928_a_at) / Fold change /veh TMCC2 (11721928_a_at) / RFU IRGQ (11745062_a_at) / Fold change /veh IRGQ (11745062_a_at) / RFU FAM174B (11720279_a_at) / Fold change /veh FAM174B (11720279_a_at) / RFU TMPRSS4 (11748680_a_at) / Fold change /veh TMPRSS4 (11748680_a_at) / RFU FAM212B (11763350_a_at) / Fold change /veh FAM212B (11763350_a_at) / RFU PLEKHG5 (11743358_a_at) / Fold change /veh PLEKHG5 (11743358_a_at) / RFU ZSCAN30 (11745921_a_at) / Fold change /veh ZSCAN30 (11745921_a_at) / RFU CMKLR1 (11741424_a_at) / Fold change /veh CMKLR1 (11741424_a_at) / RFU LOC101060620 /// MAPK8IP1 (11723275_at) / Fold change /veh LOC101060620 /// MAPK8IP1 (11723275_at) / RFU SPTSSB (11747773_x_at) / Fold change /veh SPTSSB (11747773_x_at) / RFU PRSS12 (11739890_at) / Fold change /veh PRSS12 (11739890_at) / RFU BIN1 (11741810_x_at) / Fold change /veh BIN1 (11741810_x_at) / RFU WNT11 (11732464_a_at) / Fold change /veh WNT11 (11732464_a_at) / RFU C10orf10 (11716521_a_at) / Fold change /veh C10orf10 (11716521_a_at) / RFU C5orf56 (11738089_at) / Fold change /veh C5orf56 (11738089_at) / RFU CYB561 (11721691_x_at) / Fold change /veh CYB561 (11721691_x_at) / RFU ANKRD19P (11752326_a_at) / Fold change /veh ANKRD19P (11752326_a_at) / RFU OR2T12 /// OR2T33 /// OR2T8 (11738714_s_at) / Fold change /veh OR2T12 /// OR2T33 /// OR2T8 (11738714_s_at) / RFU VCAN (11748164_a_at) / Fold change /veh VCAN (11748164_a_at) / RFU JSRP1 (11732532_at) / Fold change /veh JSRP1 (11732532_at) / RFU KRTAP10-11 (11738290_x_at) / Fold change /veh KRTAP10-11 (11738290_x_at) / RFU MYO3A (11730013_a_at) / Fold change /veh MYO3A (11730013_a_at) / RFU EBF3 (11725865_a_at) / Fold change /veh EBF3 (11725865_a_at) / RFU CAMK2N1 (11719241_x_at) / Fold change /veh CAMK2N1 (11719241_x_at) / RFU C5orf56 (11738088_a_at) / Fold change /veh C5orf56 (11738088_a_at) / RFU OLFML3 (11715873_a_at) / Fold change /veh OLFML3 (11715873_a_at) / RFU LOC100653217 /// NTM (11731650_a_at) / Fold change /veh LOC100653217 /// NTM (11731650_a_at) / RFU MAPK11 (11762145_a_at) / Fold change /veh MAPK11 (11762145_a_at) / RFU FIZ1 (11724087_x_at) / Fold change /veh FIZ1 (11724087_x_at) / RFU OASL (11726364_x_at) / Fold change /veh OASL (11726364_x_at) / RFU SOX15 (11748057_x_at) / Fold change /veh SOX15 (11748057_x_at) / RFU CD79A (11719716_a_at) / Fold change /veh CD79A (11719716_a_at) / RFU HIST1H1D (11736915_at) / Fold change /veh HIST1H1D (11736915_at) / RFU CASKIN2 (11723855_a_at) / Fold change /veh CASKIN2 (11723855_a_at) / RFU LOC730098 (11760151_x_at) / Fold change /veh LOC730098 (11760151_x_at) / RFU OR4N2 (11742367_at) / Fold change /veh OR4N2 (11742367_at) / RFU PRRT2 (11749266_a_at) / Fold change /veh PRRT2 (11749266_a_at) / RFU SNX32 (11753110_a_at) / Fold change /veh SNX32 (11753110_a_at) / RFU CDHR5 (11726645_a_at) / Fold change /veh CDHR5 (11726645_a_at) / RFU RCAN1 (11760418_a_at) / Fold change /veh RCAN1 (11760418_a_at) / RFU FAM167A (11723789_a_at) / Fold change /veh FAM167A (11723789_a_at) / RFU FAM26E (11764081_at) / Fold change /veh FAM26E (11764081_at) / RFU ISYNA1 (11749810_s_at) / Fold change /veh ISYNA1 (11749810_s_at) / RFU ACY1 (11761880_at) / Fold change /veh ACY1 (11761880_at) / RFU 11764098_at / Fold change /veh 11764098_at / RFU SAMD14 (11745864_x_at) / Fold change /veh SAMD14 (11745864_x_at) / RFU NPB (11741838_a_at) / Fold change /veh NPB (11741838_a_at) / RFU TMPRSS6 (11731388_a_at) / Fold change /veh TMPRSS6 (11731388_a_at) / RFU KRTAP10-2 (11738614_at) / Fold change /veh KRTAP10-2 (11738614_at) / RFU ARHGAP8 /// PRR5-ARHGAP8 (11727945_x_at) / Fold change /veh ARHGAP8 /// PRR5-ARHGAP8 (11727945_x_at) / RFU KRTAP5-7 /// NADSYN1 (11734609_at) / Fold change /veh KRTAP5-7 /// NADSYN1 (11734609_at) / RFU RASL12 (11751679_a_at) / Fold change /veh RASL12 (11751679_a_at) / RFU CDKN2B (11736163_a_at) / Fold change /veh CDKN2B (11736163_a_at) / RFU PRF1 (11729649_at) / Fold change /veh PRF1 (11729649_at) / RFU, ZNF638 /// ZNF638-IT1 / Fold change vs veh, ZNF638 /// ZNF638-IT1 / RFU, PANK3 / Fold change vs veh, PANK3 / RFU, SH3YL1 / Fold change vs veh, SH3YL1 / RFU, ZEB2 / Fold change vs veh, ZEB2 / RFU, NRIP1 / Fold change vs veh, NRIP1 / RFU, PTTG1IP / Fold change vs veh, PTTG1IP / RFU, CAPN2 / Fold change vs veh, CAPN2 / RFU, MED14 / Fold change vs veh, MED14 / RFU, SNORA58 / Fold change vs veh, SNORA58 / RFU, C1orf63 / Fold change vs veh, C1orf63 / RFU, LRRFIP1 / Fold change vs veh, LRRFIP1 / RFU, NDUFAF7 / Fold change vs veh, NDUFAF7 / RFU, SLC12A2 / Fold change vs veh, SLC12A2 / RFU, IBTK / Fold change vs veh, IBTK / RFU, ESF1 / Fold change vs veh, ESF1 / Fold change vs veh, TMEM50B / RFU, TAOK1 / Fold change vs veh, TAOK1 / RFU, ACBD3 / Fold change vs veh, ACBD3 / RFU, TMA16 / Fold change vs veh, TMA16 / RFU, RWDD3 / Fold change vs veh, RWDD3 / RFU, BCAT1 / Fold change vs veh, BCAT1 / RFU, EDEM3 / Fold change vs veh, EDEM3 / RFU, TMEM33 / Fold change vs veh, TMEM33 / RFU, WDR75 / Fold change vs veh, WDR75 / RFU, AHCTF1 / Fold change vs veh, AHCTF1 / RFU, TFRC / Fold change vs veh, TFRC / RFU, ZDHHC17 / Fold change vs veh, ZDHHC17 / RFU, NOM1 / Fold change vs veh, NOM1 / RFU, ARL8B / Fold change vs veh, ARL8B / RFU, ZBTB11 / Fold change vs veh, ZBTB11 / RFU, TAMM41 / Fold change vs veh, TAMM41 / RFU, KIAA1704 /// LOC100996395 / Fold change vs veh, KIAA1704 /// LOC100996395 / RFU, ING1 / Fold change vs veh, ING1 / RFU, TRMT61B / Fold change vs veh, TRMT61B / RFU, FUBP3 / Fold change vs veh, FUBP3 / RFU, TP53 / Fold change vs veh, TP53 / RFU, TNKS2 / Fold change vs veh, TNKS2 / RFU, ZFP14 / Fold change vs veh, ZFP14 / RFU, ACTR2 / Fold change vs veh, ACTR2 / RFU, PPP3R1 / Fold change vs veh, PPP3R1 / RFU, PIK3R1 / Fold change vs veh, PIK3R1 / RFU, HNRNPA1 / Fold change vs veh, HNRNPA1 / RFU, RNF170 / Fold change vs veh, RNF170 / RFU, ZNF28 / Fold change vs veh, ZNF28 / RFU, RNGTT / Fold change vs veh, RNGTT / RFU, OGT / Fold change vs veh, OGT / RFU, BRD1 / Fold change vs veh, BRD1 / RFU, MARS / Fold change vs veh, MARS / RFU, ZNF655 / Fold change vs veh, ZNF655 / RFU, FAHD1 / Fold change vs veh, FAHD1 / RFU, BDP1 / Fold change vs veh, BDP1 / RFU, LRRCC1 / Fold change vs veh, LRRCC1 / RFU, ARID1A / Fold change vs veh, ARID1A / RFU, ZNF146 / Fold change vs veh, ZNF146 / RFU, ZNF330 / Fold change vs veh, ZNF330 / RFU, GPN3 / Fold change vs veh, GPN3 / RFU, C9orf123 / Fold change vs veh, C9orf123 / RFU, N4BP2L2 / Fold change vs veh, N4BP2L2 / RFU, ARFIP1 / Fold change vs veh, ARFIP1 / RFU, FAM179B / Fold change vs veh, FAM179B / RFU, BCL10 / Fold change vs veh, BCL10 / RFU, UHRF1BP1L / Fold change vs veh, UHRF1BP1L / RFU, BET1 / Fold change vs veh, BET1 / RFU, CNOT2 / Fold change vs veh, CNOT2 / RFU, ZNF268 / Fold change vs veh, ZNF268 / Fold change vs veh, ZNF507 / RFU, DGCR2 / Fold change vs veh, DGCR2 / RFU, WDSUB1 / Fold change vs veh, WDSUB1 / Fold change vs veh, HSP90B1 /// MIR3652 / RFU, ADSS / Fold change vs veh, ADSS / RFU, GK / Fold change vs veh, GK / RFU, ZNF148 / Fold change vs veh, ZNF148 / RFU, TAF9 / Fold change vs veh, TAF9 / RFU, SLC1A5 / Fold change vs veh, SLC1A5 / RFU, SLMO2 / Fold change vs veh, SLMO2 / RFU, ABCC4 / Fold change vs veh, ABCC4 / RFU, LOC101060439 /// RAP1B / Fold change vs veh, LOC101060439 /// RAP1B / RFU, RFX7 / Fold change vs veh, RFX7 / RFU, GTPBP10 / Fold change vs veh, GTPBP10 / RFU, CNEP1R1 / Fold change vs veh, CNEP1R1 / RFU, BIVM-ERCC5 /// ERCC5 / Fold change vs veh, BIVM-ERCC5 /// ERCC5 / RFU, ILF3 / Fold change vs veh, ILF3 / RFU 11762660_at / Fold change /veh 11762660_at / RFU VCAN (11757783_s_at) / Fold change /veh VCAN (11757783_s_at) / RFU DDX43 (11728927_at) / Fold change /veh DDX43 (11728927_at) / RFU KRT8 (11758188_x_at) / Fold change /veh KRT8 (11758188_x_at) / RFU NKD1 (11759106_at) / Fold change /veh NKD1 (11759106_at) / RFU SRD5A1 (11742802_a_at) / Fold change /veh SRD5A1 (11742802_a_at) / RFU TPSAB1 /// TPSB2 (11721975_s_at) / Fold change /veh TPSAB1 /// TPSB2 (11721975_s_at) / RFU GSTM3 (11746129_a_at) / Fold change /veh GSTM3 (11746129_a_at) / RFU IL23R (11737362_x_at) / Fold change /veh IL23R (11737362_x_at) / RFU TMEM51 (11727254_a_at) / Fold change /veh TMEM51 (11727254_a_at) / RFU PIWIL2 (11732686_x_at) / Fold change /veh PIWIL2 (11732686_x_at) / RFU ORM1 (11744905_x_at) / Fold change /veh ORM1 (11744905_x_at) / RFU CCDC152 (11743942_at) / Fold change /veh CCDC152 (11743942_at) / RFU ECM1 (11717891_a_at) / Fold change /veh ECM1 (11717891_a_at) / RFU IL23R (11748794_a_at) / Fold change /veh IL23R (11748794_a_at) / RFU TNFAIP8L3 (11732012_x_at) / Fold change /veh TNFAIP8L3 (11732012_x_at) / RFU MBOAT4 (11741988_at) / Fold change /veh MBOAT4 (11741988_at) / RFU 11764193_at / Fold change /veh 11764193_at / RFU TMEM53 (11763286_at) / Fold change /veh TMEM53 (11763286_at) / RFU MAGEB2 (11727129_at) / Fold change /veh MAGEB2 (11727129_at) / RFU TMEM200A (11744735_a_at) / Fold change /veh TMEM200A (11744735_a_at) / RFU CCDC152 (11751479_a_at) / Fold change /veh CCDC152 (11751479_a_at) / RFU FAM211A (11726209_a_at) / Fold change /veh FAM211A (11726209_a_at) / RFU RGS16 (11746705_a_at) / Fold change /veh RGS16 (11746705_a_at) / RFU VCAN (11755009_s_at) / Fold change /veh VCAN (11755009_s_at) / RFU RHOB (11743442_s_at) / Fold change /veh RHOB (11743442_s_at) / RFU RGS16 (11720943_a_at) / Fold change /veh RGS16 (11720943_a_at) / RFU RGS16 (11720944_at) / Fold change /veh RGS16 (11720944_at) / RFU, VPS4B / Fold change vs veh, VPS4B / RFU, CREB1 / Fold change vs veh, CREB1 / RFU, DNAJC13 / Fold change vs veh, DNAJC13 / RFU, GNAQ / Fold change vs veh, GNAQ / RFU, CDK5R1 / Fold change vs veh, CDK5R1 / RFU, ZRANB3 / Fold change vs veh, ZRANB3 / RFU, CUL4A / Fold change vs veh, CUL4A / RFU, CCNY / Fold change vs veh, CCNY / RFU, UFL1 / Fold change vs veh, UFL1 / RFU, COG3 / Fold change vs veh, COG3 / RFU, DIAPH2 / Fold change vs veh, DIAPH2 / RFU, SKA2 / Fold change vs veh, SKA2 / RFU, AFF3 / Fold change vs veh, AFF3 / RFU, LMF1 / Fold change vs veh, LMF1 / RFU, IPO11 / Fold change vs veh, IPO11 / RFU, DFFB / Fold change vs veh, DFFB / RFU, FOXP1 / Fold change vs veh, FOXP1 / RFU, CARD8 / Fold change vs veh, CARD8 / RFU, STRN3 / Fold change vs veh, STRN3 / RFU, ADK / Fold change vs veh, ADK / RFU, RASSF2 / Fold change vs veh, RASSF2 / RFU, WIPF1 / Fold change vs veh, WIPF1 / RFU, LARP1B / Fold change vs veh, LARP1B / RFU, RASA1 / Fold change vs veh, RASA1 / RFU, RB1 / Fold change vs veh, RB1 / RFU, PPFIA1 / Fold change vs veh, PPFIA1 / RFU, MAT2A / Fold change vs veh, MAT2A / RFU, CCT5 / Fold change vs veh, CCT5 / RFU, WDR92 / Fold change vs veh, WDR92 / RFU, CUX1 / Fold change vs veh, CUX1 / RFU, TTC7A / Fold change vs veh, TTC7A / RFU, TMEM135 / Fold change vs veh, TMEM135 / RFU, DEPTOR / Fold change vs veh, DEPTOR / RFU, CPM / Fold change vs veh, CPM / RFU, DNAJB6 / Fold change vs veh, DNAJB6 / RFU, CACNA2D3 / Fold change vs veh, CACNA2D3 / RFU, DTX4 / Fold change vs veh, DTX4 / RFU, TFCP2 / Fold change vs veh, TFCP2 / RFU, GMCL1 /// GMCL1P1 / Fold change vs veh, GMCL1 /// GMCL1P1 / RFU, AEBP2 / Fold change vs veh, AEBP2 / RFU, SNHG1 /// SNORD22 /// SNORD25 /// SNORD26 /// SNORD27 /// SNORD28 /// SNORD29 /// SNORD31 / Fold change vs veh, SNHG1 /// SNORD22 /// SNORD25 /// SNORD26 /// SNORD27 /// SNORD28 /// SNORD29 /// SNORD31 / Fold change (Aza/veh), C12orf56 (ProbeSet 11735607_a_at) / Fold change (ACY-1035/veh), C12orf56 (ProbeSet 11735607_a_at) / Fold change (Aza/veh), FGFR1OP (ProbeSet 11751329_s_at) / Fold change (ACY-1035/veh), FGFR1OP (ProbeSet 11751329_s_at) / Fold change (Aza/veh), VPS36 (ProbeSet 11739960_a_at) / Fold change (ACY-1035/veh), VPS36 (ProbeSet 11739960_a_at) / RFU SYPL1 (11715823_x_at) / Fold change /veh SYPL1 (11715823_x_at) / RFU IGFBP7 (11715501_s_at) / Fold change /veh IGFBP7 (11715501_s_at) / RFU REEP3 (11722064_at) / Fold change /veh REEP3 (11722064_at) / RFU IGLL1 (11728026_x_at) / Fold change /veh IGLL1 (11728026_x_at): dose or concentration left out as unconfirmed
Settings: ProbeSet 11762504_a_at; LIST D

`Nc1ccc(-c2cccs2)cc1NC(=O)c1ccc2c(c1)cc(C1CC1)n2CCN1CCOCC1` [ACY-1035] was tested, and the “RFU, ZRANB3” value was 82.93 RFU.
